IC50 data for 17 compounds are collected here from patent publication US20240050428A1 (Cullgen (Shanghai), Inc., priority 2020, published 2024).

Read-outs that look alike come from different tables or passages of the source.

The test system of test [1] is MOLM-13 cells. Briefly: Cell viability assay (CellTiter-Glo) in MOLM-13 cells, alone or with gilteritinib. The test is classed as cell-based. As to conditions: Homo sapiens, MOLM-13 cells, three days, CellTiter-Glo. On the technique in general: ATP-based viability assays read luminescence as a measure of living cells.
Test [2] concerns MV4;11 cells. Briefly: Cell viability assay (CellTiter-Glo) in MV4;11 cells, alone or with gilteritinib. In kind it is cell-based. As to conditions: Homo sapiens, MV4;11 cells, three days, CellTiter-Glo, read-out: MV4.
[3] abbreviates: MOLM-13, 72 h, compound alone (without gilteritinib), read-out: MOLM-13 IC50.
Where [4] appears, read: MOLM-13, 72 h, with gilteritinib 20 nM, read-out: MOLM-13 IC50 gilteritinib.
Where [5] appears, read: MV4-11, 72 h, compound alone (without gilteritinib), 11 IC50.
[6] abbreviates: MV4-11, 72 h, with gilteritinib 10 nM, 11 IC50 gilteritinib.
[7] abbreviates: MOLM-13, 72 h, compound with gilteritinib 20 nM, read-out: MOLM-13 IC50 gilteritinib.
[8] abbreviates: MV4-11, 72 h, compound with gilteritinib 10 nM, 11 IC50 gilteritinib.
Where [9] appears, read: 72 h, compound alone (without gilteritinib), read-out: MOLM-13 IC50.
Setting [10] is: 72 h, compound with gilteritinib 20 nM, read-out: MOLM-13 IC50 gilteritinib.
Setting [11] is: 72 h, compound alone (without gilteritinib), 11 IC50.
Setting [12] is: 72 h, compound with gilteritinib 10 nM, 11 IC50 gilteritinib.

Turning to `N#Cc1ccc2ncc(-c3cnn(C4CC(CCCNc5ccc6c(c5)C(=O)N(C5CCC(=O)NC5=O)C6=O)C4)c3)nc2c1` (centres unmarked) [GS-175, 3-(1-(3-(3-((2-(2,6-Dioxopiperidin-3-yl)-1,3-dioxoisoindolin-5-yl)amino)propyl)cyclobutyl)-1H-pyrazol-4-yl)quinoxaline-6-carbonitrile], the IC50 in test [1] (setting [3]) is 100 to 1000 nM; in test [1] (setting [4]), less than 10 nM; in test [2] (setting [5]), 100 to 1000 nM; in test [2] (setting [6]), 10 to 100 nM.
As to `O=C1CCC(N2C(=O)c3ccc(CCCCCCCn4cc(-c5cnc6ccccc6n5)cn4)cc3C2=O)C(=O)N1` (centres unmarked) [GS-352, 2-(2,6-Dioxopiperidin-3-yl)-5-(7-(4-(quinoxalin-2-yl)-1H-pyrazol-1-yl)heptyl)isoindoline-1,3-dione], the IC50 in test [1] (setting [3]) is more than 1000 nM; in test [1] (setting [4]), 100 to 1000 nM; in test [2] (setting [5]), 100 to 1000 nM; in test [2] (setting [6]) it was 100 to 1000 nM.
For the compound `O=C1CCC(N2C(=O)c3ccc(NCCCCCCN4CCC(n5cc(-c6cnc7ccccc7n6)cn5)CC4)cc3C2=O)C(=O)N1` (centres unmarked) [GS-326, 2-(2,6-Dioxopiperidin-3-yl)-5-((6-(4-(4-(quinoxalin-2-yl)-1H-pyrazol-1-yl)piperidin-1-yl)hexyl)amino)isoindoline-1,3-dione], the IC50 in test [1] (setting [3]) is more than 1000 nM; in test [1] (setting [4]), 100 to 1000 nM; in test [2] (setting [5]) it was more than 1000 nM; in test [2] (setting [6]), more than 1000 nM.
For the compound `O=C1CCC(N2C(=O)c3ccc(NCCCCCCn4ncc(-c5cnc6ccccc6n5)c4C(F)F)cc3C2=O)C(=O)N1` (centres unmarked) [GS-557, 5-((6-(5-(Difluoromethyl)-4-(quinoxalin-2-yl)-1H-pyrazol-1-yl)hexyl)amino)-2-(2,6-dioxopiperidin-3-yl)isoindoline-1,3-dione], the IC50 in test [1] (setting [3]) was 10 to 100 nM; in test [1] (setting [7]) it was less than 10 nM; in test [2] (setting [5]), 10 to 100 nM; in test [2] (setting [8]) it was less than 10 nM.
As for `CN1CCC(Nc2cccc(-c3cn([C@H]4C[C@H](CNc5ccc6c(c5)C(=O)N(C5CCC(=O)NC5=O)C6=O)C4)nc3C3CC3)n2)CC1` (stereo partly drawn) [GS-454, 5-(((trans-3-(3-cyclopropyl-4-(6-((1-methylpiperidin-4-yl)amino)pyridin-2-yl)-1H-pyrazol-1-yl)cyclobutyl)methyl)amino)-2-(2,6-dioxopiperidin-3-yl)isoindoline-1,3-dione], the IC50 is more than 1000 nM in test [1] (setting [9]), 100 to 1000 nM in test [1] (setting [10]), more than 1000 nM in test [2] (setting [11]) and 100 to 1000 nM in test [2] (setting [12]).
For the compound `CN1CCN(c2ccnc(-c3cnn([C@H]4C[C@H](CCCNc5ccc6c(c5)C(=O)N(C5CCC(=O)NC5=O)C6=O)C4)c3)n2)CC1` (stereo partly drawn) [GS-423, 2-(2,6-dioxopiperidin-3-yl)-5-((3-(trans-3-(4-(4-(4-methylpiperazin-1-yl)pyrimidin-2-yl)-1H-pyrazol-1-yl)cyclobutyl)propyl)amino)isoindoline-1,3-dione], the IC50 in test [1] (setting [3]) lay in the range of 100 to 1000 nM; in test [1] (setting [7]) it was 10 to 100 nM; in test [2] (setting [5]), 100 to 1000 nM; in test [2] (setting [8]), 10 to 100 nM.
`O=C(Cc1cccc(N2CCN(c3ccccn3)CC2)c1)NCc1ccc2c(c1)CN(C1CCC(=O)NC1=O)C2=O` (centres unmarked) [GS-483, N-((2-(2,6-dioxopiperidin-3-yl)-1-oxoisoindolin-5-yl)methyl)-2-(3-(4-(pyridin-2-yl)piperazin-1-yl)phenyl)acetamide]: the IC50 in test [1] (setting [3]), in test [1] (setting [7]), in test [2] (setting [5]) and in test [2] (setting [8]) was less than 10 nM each time.
Consider `O=C1CCC(N2C(=O)c3ccc(NCCC[C@H]4C[C@@H](n5cc(-c6cnc7ccc(C8CCOCC8)cc7n6)c(C6CC6)n5)C4)cc3C2=O)C(=O)N1` (stereo partly drawn) [GS-213, 5-((3-(cis-3-(3-Cyclopropyl-4-(7-(tetrahydro-2H-pyran-4-yl)quinoxalin-2-yl)-1H-pyrazol-1-yl)cyclobutyl)propyl)amino)-2-(2,6-dioxopiperidin-3-yl)isoindoline-1,3-dione], for which the IC50 in test [1] (setting [3]), in test [1] (setting [4]), in test [2] (setting [5]) and in test [2] (setting [6]) was less than 10 nM in each case.
Regarding `O=C1CCC(N2C(=O)c3ccc(CNCCCn4cc(-c5cnc6ccccc6n5)c(C5CC5)n4)cc3C2=O)C(=O)N1` (centres unmarked) [GS-313, 5-(((3-(3-Cyclopropyl-4-(quinoxalin-2-yl)-1H-pyrazol-1-yl)propyl)amino)methyl)-2-(2,6-dioxopiperidin-3-yl)isoindoline-1,3-dione], the IC50 in test [1] (setting [3]), in test [1] (setting [4]), in test [2] (setting [5]) and in test [2] (setting [6]) was more than 1000 nM in each case.
Take `O=C1CCC(N2C(=O)c3ccc(NCCCc4cccc(N5CCC(c6ccccc6)CC5)c4)cc3C2=O)C(=O)N1` (centres unmarked) [GS-504, 2-(2,6-Dioxopiperidin-3-yl)-5-((3-(3-(4-phenylpiperidin-1-yl)phenyl)propyl)amino)isoindoline-1,3-dione]: the IC50 in test [1] (setting [9]) lay in the range of 100 to 1000 nM; in test [1] (setting [10]), 10 to 100 nM; in test [2] (setting [11]) it was 100 to 1000 nM; in test [2] (setting [12]), 10 to 100 nM.
Consider `O=C1CCC(N2C(=O)c3ccc(NCCC[C@H]4C[C@H](n5cc(-c6cnc7c(F)cccc7n6)cn5)C4)cc3C2=O)C(=O)N1` (stereo partly drawn) [GS-234, 2-(2,6-Dioxopiperidin-3-yl)-5-((3-(trans-3-(4-(5-fluoroquinoxalin-2-yl)-1H-pyrazol-1-yl)cyclobutyl)propyl)amino)isoindoline-1,3-dione], for which the IC50 in test [1] (setting [3]) is 100 to 1000 nM; in test [1] (setting [4]), 10 to 100 nM; in test [2] (setting [5]), less than 10 nM; in test [2] (setting [6]), 10 to 100 nM.
In the case of `O=C1CCC(N2C(=O)c3ccc(NC[C@H]4C[C@H](n5cc(-c6ncccc6C6CC6)c(C6CC6)n5)C4)cc3C2=O)C(=O)N1` (stereo partly drawn) [GS-467, 5-(((trans-3-(3-cyclopropyl-4-(3-cyclopropylpyridin-2-yl)-1H-pyrazol-1-yl)cyclobutyl)methyl)amino)-2-(2,6-dioxopiperidin-3-yl)isoindoline-1,3-dione], the IC50 in test [1] (setting [3]) was 10 to 100 nM; in test [1] (setting [7]), 10 to 100 nM; in test [2] (setting [5]), 10 to 100 nM; in test [2] (setting [8]), less than 10 nM.
As for `O=C1CCC(N2C(=O)c3ccc(NCCCCC(=O)N4CCC(c5ccccc5)CC4)cc3C2=O)C(=O)N1` (centres unmarked) [GS-147, 2-(2,6-Dioxopiperidin-3-yl)-5-((5-oxo-5-(4-phenylpiperidin-1-yl)pentyl)amino)isoindoline-1,3-dione], the IC50 is more than 1000 nM in test [1] (setting [9]); 10 to 100 nM in test [1] (72 h, with gilteritinib 20 nM, read-out: MOLM-13 IC50 gilteritinib); more than 1000 nM in test [2] (setting [11]); 100 to 1000 nM in test [2] (72 h, with gilteritinib 10 nM, 11 IC50 gilteritinib).
`CN1CCC(c2cn([C@H]3C[C@H](CNc4ccc5c(c4)C(=O)N(C4CCC(=O)NC4=O)C5=O)C3)nc2C2CC2)CC1` (stereo partly drawn) [GS-460, 5-(((trans-3-(3-cyclopropyl-4-(1-methylpiperidin-4-yl)-1H-pyrazol-1-yl)cyclobutyl)methyl)amino)-2-(2,6-dioxopiperidin-3-yl)isoindoline-1,3-dione]: the IC50 in test [1] (setting [3]), in test [1] (setting [7]), in test [2] (setting [5]) and in test [2] (setting [8]) was more than 1000 nM in each case.
For `O=C1CCC(N2C(=O)c3ccc(NCCCCNC(=O)N4CCC(n5cc(-c6cnc7ccccc7n6)cn5)CC4)cc3C2=O)C(=O)N1` (centres unmarked) [GS-379, N-(4-((2-(2,6-Dioxopiperidin-3-yl)-1,3-dioxoisoindolin-5-yl)amino)butyl)-4-(4-(quinoxalin-2-yl)-1H-pyrazol-1-yl)piperidine-1-carboxamide], the IC50 in test [1] (setting [3]) was more than 1000 nM; in test [1] (setting [4]), 10 to 100 nM; in test [2] (setting [5]), 100 to 1000 nM; in test [2] (setting [6]) it was 10 to 100 nM.
For `CN(C)c1cccnc1-c1cn([C@H]2C[C@H](CNc3ccc4c(c3)C(=O)N(C3CCC(=O)NC3=O)C4=O)C2)nc1C1CC1` (stereo partly drawn) [GS-621, 5-(((trans-3-(3-Cyclopropyl-4-(3-(dimethylamino)pyridin-2-yl)-1H-pyrazol-1-yl)cyclobutyl)methyl)amino)-2-(2,6-dioxopiperidin-3-yl)isoindoline-1,3-dione], the IC50 in test [1] (setting [3]) is 10 to 100 nM; in test [1] (setting [7]) it was less than 10 nM; in test [2] (setting [5]), 10 to 100 nM; in test [2] (setting [8]), less than 10 nM.
On to `CC(C)c1nc2ccccc2nc1-c1cnn(CCCCCCNc2ccc3c(c2)C(=O)N(C2CCC(=O)NC2=O)C3=O)c1` (centres unmarked) [GS-523, 2-(2,6-Dioxopiperidin-3-yl)-5-((6-(4-(3-isopropylquinoxalin-2-yl)-1H-pyrazol-1-yl)hexyl)amino)isoindoline-1,3-dione], for which the IC50 in test [1] (setting [9]) is more than 1000 nM; in test [1] (setting [10]), 100 to 1000 nM; in test [2] (setting [11]), more than 1000 nM; in test [2] (setting [12]), 100 to 1000 nM.
